# Assay results reported in patent US20260055398A1, “IMPROVED POLYMER DEGRADING ENZYMES” (CAMBRIDGE ENTERPRISE LIMITED, priority 2022, published 2026).
# Columns and labels:
# Assay type in all cases: biochemical
# [1] = system: RR11O2; assay: Kinetics of p-NP acyl ester hydrolysis by RR11O2; details: 50 mM Tris-HCl pH 8.0, 0.3% (v/v) triton X-100, 22° C.
# Method: (B) Detail of RR11O2's cavity (in blue) and the catalytic triad (in cyan) S149, D311 and H308. (C) The catalytic efficiencies of RR11O2 measured against p-NP acyl esters [acetate (C2), butyrate (C4), hexanoate (C6), octanoate (C8), decanoate (C10), dodecanoate (C12), myristate (C14) and palmitate (C16)]. The reactions were performed in buffer containing 50 mM Tris-HCl PH 8.0 and 0.3% (v/v) Triton X-100 at 22° C.
# (§1) The activity of all esterase hits was determined via hydrolysis of p-nitrophenol (p-NP) carboxylesterase by monitoring the release of p-nitrophenol. The amount of p-nitrophenol released was quantified by absorbance at 405 nm (εpNP=17,000 M−1.cm−1) using a Spectramax 190 microplate reader (Molecular Devices). Unless otherwise indicated, the measurements were performed at 22° C. in triplicate using 96-well plates with a final assay volume of 100 μL in 50 mM Tris-HCl pH 8.0 and 0.3% (v/v) triton X-100. The substrate specificity was investigated by measuring the hydrolysis of the following p-NP-fatty acyl esters: butyrate (C4), hexanoate (C6 from TCI Chemicals, H0484), octanoate (C8), decanoate (C10), dodecanoate (C12), myristate (C14) and palmitate (C16). The kinetic parameters for each substrate were obtained by non-linear regression of the data using the Michaelis-Menten equation: V=Vmax*[S]/(Km+[S]), where V is the rate, Vmax is the maximum rate achieved by the reaction, S is the substrate concentration, and Km is the Michaelis-Menten constant. The effect of the pH was evaluated by measuring the enzyme activity at pH 4.0 to 11.0 in 50 mM of the following buffers containing 0.3% (v/v) triton X-100: sodium citrate at pH 4.0, pH 5.0 and 6.0; phosphate at pH 6.0, 7.0, 8.0; Tris-HCl at pH 7.0, 8.0 and 9.0; N-cyclohexyl-3-aminopropanesulfonic acid (CAPS) at pH 9.5, 10.0, 11.0.
# The enzyme activity of purified RR11O2, Bla-CI5En2 and IsPETase was tested against different p-NP acyl esters [acetate (C2), butyrate (C4), hexanoate (C6), octanoate (C8), decanoate (C10), dodecanoate (C12) and myristate (C14)]. The final enzyme concentration of the enzymes in the reaction depended on the p-NP acyl ester used as substrate. Kinetics were measured at enzyme concentrations of RR11O2, Bla-CI5En2 and IsPETase between 31.25 μM to 23.2 μM, 2.5 nM to 50 nM, and 50 nM to 4.8 μM, respectively. The p-NP acyl ester substrates were used in a concentration range between 0 and 4 mM. The kinetic parameters Vmax and Km were calculated using Kaleidagraph by non-linear lest square fits of initial rates to the Michaelis-Menten equation. […] The released p-nitrophenol was monitored spectro-photometrically at 405 nm (εpNP=18.300 M−1.cm−1) by taking time points in 20 second intervals in a SpectraMax® M3 Microplate Reader (Molecular Devices).
# [2] = system: N20O1; assay: Kinetics of p-NP acyl ester hydrolysis by N20O1; details: 50 mM Tris-HCl pH 8.0, 0.3% (v/v) triton X-100, 22° C.
# Method: as §1, with “11.0. […]” for “11.0.”
# [3] = Enzymatic degradation of PET (nanoparticles, film), HPLC of released TPA and MHET
# Excerpt: (A) Sequence network of currently known PETases and a novel esterase metagenomic-derived, RR11O2. […] Grey nodes represent sequences extracted from MGnify and NCBI. Red node represents RR11O2, blue nodes represent known PETases, green and orange nodes represent reported cutinases and esterases showing PET activity, respectively, and light blue nodes represent described polyester degrading enzymes in the literature. To putatively characterise sequence clusters, the identification of PETases, cutinases, esterases and RR11O2 in the network helped to define the potential clusters. The cluster of RR11O2, CI5En2 and PETase are written in grey. (B) PET hydrolases catalyze the depolymerization of poly(ethylene terephthalate) (PET) to bis(2-hydroxyethyl) terephthalate (BHET), mono(2-hydroxyethyl)-terephthalic (MHET) or terephthalic acid (TPA) and ethylene glycol (EG). During characterizations via high-performance liquid chromatography (HPLC) MHET and TPA have been identified as main products. […] Absorbance at 250 nm was monitored.
# (A) Enrichment of variants with higher activity compared to wildtype after sorting the ep-PCR library of CI5En2. […] Amount of the released monomers TPA and MHET was determined via HPLC and corresponding standard curves for TPA and MHET. […]
# HPLC analysis of the products released after one week incubation at 30° C. using 6 μM pExp-bla-CI5En2-WT. Absorbance at 250 nm was monitored which detects released TPA and MHET.
# To detect the release of TPA, MHET and BHET in the presence of various enzymes, aliquots were taken from reaction mixtures, turnover was stopped by addition of an equal volume of methanol containing 0.5% formic acid, centrifuged (16,100×g, 15 min) and analysed by HPLC (1260 Infinity II, Agilent; Nucleodur C18 analytical EC standard column (5 μm, 4×125 mm, Macherey-Nagel, Germany). As the mobile phase mixtures of buffer A (0.1% formic acid in distilled water) and buffer C (distilled water), as well as buffer D (acetonitrile) were used at a flow rate of 1 mL/min. Buffer A was kept at 20% for the whole run. […]
Km [1],Km [2],Molecule,kcat [1],kcat [2],promiscuous activity on PET [3]
30000 µM,3800 µM,"CC(=O)Oc1ccc([N+](=O)[O-])cc1 [Substrate 3a, p-NP acetate]",390 s⁻¹,520 s⁻¹,
2200 µM,2200 µM,"CCCC(=O)Oc1ccc([N+](=O)[O-])cc1 [Substrate 3b, p-NP butyrate]",46 s⁻¹,630 s⁻¹,
720 µM,1400 µM,"CCCCCC(=O)Oc1ccc([N+](=O)[O-])cc1 [Substrate 3c, p-NP hexanoate]",35 s⁻¹,250 s⁻¹,
370 µM,1100 µM,"CCCCCCCC(=O)Oc1ccc([N+](=O)[O-])cc1 [Substrate 3d, p-NP octanoate]",11 s⁻¹,370 s⁻¹,
2000 µM,1500 µM,"CCCCCCCCCC(=O)Oc1ccc([N+](=O)[O-])cc1 [Substrate 3e, p-NP decanoate]",5.4 s⁻¹,31 s⁻¹,
2800 µM,2000 µM,"CCCCCCCCCCCC(=O)Oc1ccc([N+](=O)[O-])cc1 [Substrate 3f, p-NP dodecanoate]",0.78 s⁻¹,0.5 s⁻¹,
1500 µM,4400 µM,"CCCCCCCCCCCCCC(=O)Oc1ccc([N+](=O)[O-])cc1 [Substrate 3g, p-NP myristate]",0.039 s⁻¹,0.042 s⁻¹,
7400 µM,4800 µM,"CCCCCCCCCCCCCCCC(=O)Oc1ccc([N+](=O)[O-])cc1 [Substrate 3h, p-NP palmitate]",0.017 s⁻¹,0.016 s⁻¹,
,,"RR11O2: metagenomic-derived esterase with promiscuous activity on PET; amino acid SEQ ID NO. 4; PDB 6ZZV (protein, RR1102) MSENMNRPLDYSQKANWYQIPEVTKEFDTFYVYATEYILSSMEEGAPDYADMENAEMLEGAAAEYMLHATAYADSTNVFMPYYRQVGLRYAGVVWKRDGIFDASVAGMPYGDIVAALDYYFEHYNNGRPFIIAGHSQGSAIIKMVLKKYFVEHPDYYKRMIAAYPIGYAFTKDEFKTYPHMKFATGECDTGVIITWNTEGPKNREVNADTCVLQPGSMSINPLNWKLDDTYAPASMNLGSLFPNKDTGKLEIQDLGADAQVFPDRGVVVTHAMGEEMTEETAKVAAEFFGPDGRHGEDYVLFYCNIKDNVAKRISAYMANRK",,,exhibits promiscuous activity on PET
